Where “and” joins values, the source holds several entries; their conditions need not be identical. Identical values can stand only once.
Assays:
[1] = tested on: VanA strain of E. faecium (VRE); assay: Suppression of VRE in a mouse colonization model; type: in vivo, Mice
Description: Mice were colonized with a clinical isolate VanA strain of E. faecium (VRE) isolated from a septicemic patient. A single inoculation of 5×10^8 cfu VRE by oral gavage (Day 0) was followed by treatment with vancomycin in the drinking water to maintain colonization. On day 22, each group received the same vancomycin-containing drinking water. One group also received ramoplanin (100 μg/mL) in its drinking water. The dose of ramoplanin per day was estimated to be 15 mg/kg, based on a standard water consumption of 150 mL/kg/day. Treatment with ramoplanin was discontinued on Day 29, and vancomycin treatment was discontinued on Day 36. The control group consisted of five mice, while the ramoplanin group consisted of four mice.

[2] = Multiple dose study in healthy male volunteers: absorption and fecal concentrations; type: in vivo, human
Description: (§1) Healthy male volunteers were administered 200, 400, or 800 mg ramoplanin twice-a-day, for ten consecutive days. The predetermined dose was reconstituted in 5 mL water per vial, mixed with 50 mL of sweetened, aromatized solution, and immediately administered orally to the subjects.
No absorption from the human gastrointestinal tract was observed.

[3] = tested on: Gram-positive bacteria (staphylococci, streptococci, enterococci) in feces; assay: Multiple dose study: activity on stool microflora, Gram-positive bacteria; type: in vivo, human
Description: as §1
(§2) The antibacterial activity of ramoplanin on the stool microflora was assessed in a subset of the subjects. Microbial concentrations (i.e., the number of organisms per gram of fecal matter) were determined at the following time points: Day-4 (pre-treatment), Days 4 and 10 (treatment), and Days […] and 24 (follow-up). Tolerability and absorption were also investigated.

[4] = tested on: Clostridium spp.; assay: Multiple dose study: activity on stool microflora, Clostridium; type: in vivo, human
Description: as §1, §2

[5] = tested on: Gram-negative bacteria (enteric bacteria and Bacteroides spp.) or yeast; assay: Multiple dose study: activity on stool microflora, Gram-negative bacteria and yeast; type: in vivo, human; details: healthy male volunteers, oral 200, 400, 800 mg B.I.D. 10 days
Description: as §1, §2

[6] = Oral formulation study: ramoplanin in feces, plasma and urine; type: in vivo, human; details: 400 mg b.i.d. seven days
Description: To further elucidate the pharmacodynamics and intestinal bioavailability, healthy male volunteers (18-45 years; BMI—19-29 kg/m^2) were administered oral ramoplanin (400 mg b.i.d.) for seven days and fecal Enterococci were monitored. Ramoplanin was administered to six subjects as a granulated powder admixed with Orasweet® syrup vehicle.

[7] = tested on: VRE; assay: MIC against VRE, NCCLS broth microdilution; type: cell-based; details: all VRE in this study cultured in CAMHB
Description: The efficacy of ramoplanin was tested against recently isolated VRE that are resistant to linezolid and quinupristin/dalfopristin. The culture media containing ramoplanin was supplemented with 0.02% bovine serum albumin (BSA) to prevent ramoplanin binding to the plastic. MIC values were determined in both cation-adjusted Mueller-Hinton broth (CAMHB) and trypticase soy broth (TSB) by the National Committee for Clinical Laboratory Standards (NCCLS) broth microdilution method. Macromolecular biosynthesis experiments were done by following the incorporation of carbon-14-labeled N-acetylglucosamine, acetic acid, amino acids, uridine, and thymidine into peptidoglycan, fatty acid, protein, RNA and DNA, respectively.

[8] = Storage stability of ramoplanin granules and reconstituted solution; type: physicochemical; details: refrigerated conditions
Description: Ramoplanin is available as granules for oral solution, provided, for example, in packets containing 400 mg free base of ramoplanin, along with pharmaceutically acceptable excipients (e.g., mannitol, hydroxypropyl methylcellulose, magnesium stearate). The contents of the packet can be reconstituted with approximately 15-30 mL of water, and the resulting solution either consumed directly, or further diluted with water, cranberry juice, apple juice, or 7-Up prior to drinking. After consumption, the drug may be followed with subsequent amounts of these beverages or with food (e.g., cracker, bread). […] The reconstituted ramoplanin aqueous solution has a shelf life of 48 hours when stored at refrigerated conditions.

[9] = tested on: E. faecium 1836; assay: MIC, NCCLS broth microdilution; type: cell-based; details: E. faecium 1836
Method in brief: (§3)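 Ramoplanin-containing broths (cation-adjusted Mueller-Hinton or trypticase soy) received 0.02% BSA so the drug would not stick to plastic. Minimum inhibitory concentrations were read per the NCCLS broth microdilution standard.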

[10] = tested on: E. faecium A 6350 Line-R; assay: MIC, NCCLS broth microdilution; type: cell-based; details: E. faecium A 6350 Line-R (Table 2)
Method in brief: as §3

[11] = tested on: E. faecium A6343 Line-R; assay: MIC, NCCLS broth microdilution; type: cell-based
Method in brief: as §3

[12] = tested on: E. faecium A6345 Line-R; assay: MIC, NCCLS broth microdilution; type: cell-based; details: for MIC: E. faecium A6345 Line-R
Method in brief: as §3

[13] = tested on: S. aureus ATCC12600 MRSA; assay: MIC, NCCLS broth microdilution; type: cell-based
Method in brief: as §3

[14] = tested on: S. aureus ATCC700699 MRSA/VISA; assay: MIC, NCCLS broth microdilution; type: cell-based; details: S. aureus ATCC700699 MRSA/VISA
Method in brief: as §3

[15] = tested on: VRE; assay: Time-kill studies against VRE; type: cell-based
[16] = Day 29, completion of ramoplanin therapy, 25 mg/kg/day vancomycin + 15 mg/kg/day ramoplanin in drinking water

In the case of Ramoplanin, the “% Mice with VRE” value [1, 16] was 0%, the “Enterococci in faeces: Total Enterococci” value [1, 16] was <2.4 log 10 cfu/g faeces and the “Enterococci in faeces: VRE” value [1, 16] was <3.1 log 10 cfu/g faeces. The “VRE concentration per gram of feces” value ([1]; mice, after one week of ramoplanin treatment, all animals (undetectable level)) was < 3.1 log units, the “VRE concentration per gram of feces” value ([1]; mice, before ramoplanin treatment) was 9.7 log units and the “fecal density and carriage of VRE” value ([1]; mice, ramoplanin 100 μg/mL in drinking water) was “significantly reduced”. For the same substance, the “absorption from the human gastrointestinal tract” value ([2]; 200, 400 or 800 mg twice-a-day, ten days) was “No absorption”, the “urine levels of ramoplanin” value ([2]; Day 1 and 5 and pooled urine up to 72-96 after the last dose) was “No levels were found in urine” and the “average fecal concentration of ramoplanin” value (from here on “average fecal concentration”) ([2]; Day 3, 200 mg twice-a-day) was 827 µg/g. The “average fecal concentration” value ([2]; Day 3, 400 mg twice-a-day) was 1742 µg/g, the “average fecal concentration” value ([2]; Day 3, 800 mg twice-a-day) was 1901 µg/g and the “average fecal concentration” value ([2]; Day 10, 200 mg twice-a-day) was 949 µg/g. The “average fecal concentration” value ([2]; Day 10, 400 mg twice-a-day) was 1417 µg/g, the “average fecal concentration” value ([2]; Day 10, 800 mg twice-a-day) was 2647 µg/g and the “serum levels of ramoplanin” value ([2]; Days 1, 5 and 10, hour 0.5-12 after the morning dose) was “no serum levels of ramoplanin were detected”. The fecal concentrations post-treatment ([2]; four days post-treatment) was “remained detectable in some subjects”, the “cumulative recovery in feces” value ([2]; up to Day 4 post-treatment) was 25 % of the administered dose and the “concentrations of staphylococci, streptococci, and enterococci in stool” value ([3]; by Day 10, all subjects) was “below the level of detection”. The “effect on Gram-positive bacteria in stool” value ([3]; first measurement on Day 4 of treatment) was “marked effect”, the “intestinal flora after therapy” value ([3]; follow-up after the 10-day therapy) was “re-colonized by normal Gram-positive bacteria” and the “Gram-positive colony counts in feces” value ([3]; healthy male volunteers, all doses (200, 400, 800 mg B.I.D.), during the 10-day regimen) was “undetectable levels”. The “subjects with Clostridium spp. concentration reduced below detectable levels” value ([4]; multiple dose study, stool microflora subset) was 10 of 12, the clostridial load ([4]; two subjects carrying ramoplanin- and vancomycin-resistant Clostridium spp. (C. rectum and C. beijerinckii) before treatment) was “no variation” and the “effect on Gram-negative flora / yeast in stool” value [5] was “not effective”. The “effect on Gram-negative flora / yeast in stool” value ([5]; listed as ramoplanin) was “no effect”, the fecal ramoplanin concentration [6] was 0.56 to 2.65 mg/g and the “ramoplanin concentration in plasma or urine” value ([6]; any subject) was “No measurable ramoplanin concentration was detected”. For the same substance, the MIC [7] was 0.125 to 0.25 µg/mL, the storage stability ([8]; 400 mg granulated powder packets) was “stable for at least one year” and the shelf life ([8]; reconstituted ramoplanin aqueous solution) was 48 h. The MIC ([9]; CAMHB) was 0.5, 0.5 μg/ml, the MIC ([9]; TSB) was 0.5, 0.5 μg/ml and the MIC ([9]; Table 6, 1st) was 0.25 µg/mL. The MIC ([9]; Table 6, 2nd) was 0.5 µg/mL, the MIC ([10]; CAMHB) was 0.25, 0.25 μg/ml and the MIC ([10]; TSB) was 0.25, 0.25 μg/ml. For the same substance, the MIC ([11]; CAMHB) was 0.25, 0.25 μg/ml, the MIC ([11]; TSB) was 0.25, 0.25 μg/ml and the MIC ([11]; Table 6, 1st) was 0.125 µg/mL. For the same substance, the MIC ([11]; Table 6, 2nd) was 0.25 µg/mL, the “reference MIC for strains used for killing curve” value ([12]; E. faecium A6345 Line-R. as printed, second row of Table 3) was 0.25 µg/mL and the “reference MIC for strains used for killing curve” value ([12]; E. faecium A6345 Line-R., first row of Table 3) was 0.25 µg/mL. For the same substance, the MIC ([12]; CAMHB) was 0.125, 0.125 μg/ml, the MIC ([12]; TSB) was 0.25, 0.25 μg/ml and the MIC ([12]; Table 6, 1st) was 0.125 µg/mL. For the same substance, the MIC ([12]; Table 6, 2nd) was 0.25 µg/mL, the MIC ([13]; CAMHB) was 0.5, 0.5 μg/ml and the MIC ([13]; TSB) was 0.5, 0.5 μg/ml. The MIC ([13]; Table 6, 1st) was 1 µg/mL, the MIC ([13]; Table 6, 2nd) was 0.5 µg/mL and the MIC ([14]; CAMHB) was 0.5 µg/mL and 0.25 µg/mL. The MIC ([14]; TSB) was 0.25, 0.25 μg/ml, the MIC ([14]; Table 6, 1st) was 1 µg/mL and the MIC ([14]; Table 6, 2nd) was 0.5 µg/mL. For the same substance, the time-kill activity [15] was “bactericidal activity”.

Reference: patent US20040127403A1, “Methods for treating and preventing Gram-positive bacteremias” (priority 2002, published 2004)
